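Five concentrations, 48 hours, 96-well plates. GI50 marks 50% less growth. TGI denotes the concentration required for complete inhibition of growth.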
Experiments:
Test in all cases: inhibition of tumour cell growth, NCI panel, 48 h
[1] = tested on: NCI-H522 lung
[2] = tested on: TK-10 renal
[3] = tested on: NCI-H23 lung
[4] = tested on: HCT-15 colon
[5] = tested on: SK-MEL-5 melanoma
[6] = tested on: COLO 205 colon
[7] = tested on: MOLT-4 leukemia
[8] = tested on: LOX IMVI melanoma
[9] = tested on: BT-549 breast
[10] = tested on: SF-539 CNS

Row | SMILES | TGI [1] | TGI [2] | TGI [3] | TGI [4] | TGI [5] | TGI [6] | TGI [7] | TGI [8] | TGI [9] | TGI [10] | GI50 [1] | GI50 [2] | GI50 [3] | GI50 [4] | GI50 [10] | GI50 [5] | GI50 [6] | GI50 [7] | GI50 [9]
1 | COC(=O)[C@]1(c2cc3ccccc3n2S(=O)(=O)c2ccccc2)CC2CN(C(=O)OCc3ccccc3)C1C1OC(C)(C)OC21 (stereo partly drawn) | > 100 µM | > 100 µM | > 100 µM | > 100 µM | > 100 µM | > 100 µM | > 100 µM | > 100 µM | > 100 µM | – | – | – | – | – | – | – | – | – | –
2 | O=C(O)C(Cc1ccccc1)NCc1c(O)ccc2c(-c3ccccc3)cc(=O)oc12 (stereo not drawn) | > 100 µM | > 100 µM | > 100 µM | > 100 µM | > 100 µM | > 100 µM | > 100 µM | > 100 µM | – | > 100 µM | – | – | – | – | – | – | – | – | –
3 | COC(=O)c1c2c(cc3c1CC1(Cc4cc5c(c(C=O)c4C1)CCC5)C3)CCC2 (stereo not drawn) | 56.6 µM | > 100 µM | > 100 µM | > 100 µM | 37.2 µM | – | 59.1 µM | 56.5 µM | – | > 100 µM | – | – | – | – | – | – | – | – | –
4 | Nc1c(C(=O)c2ccc(Cl)c(Cl)c2)[nH]c(NCc2ccccc2)c1C(=S)Nc1ccccc1 | 17.7 µM | 33.4 µM | 41.6 µM | 6.27 µM | – | 3.79 µM | > 100 µM | 4.53 µM | 30.5 µM | 6.47 µM | – | – | – | – | – | – | – | – | –
5 | COc1ccc(N2C(=O)C3c4[nH]c5c(C)cccc5c4C4CCC(C(C)C)CC4C3C2=O)cc1 (stereo not drawn) | 27.2 µM | 76.8 µM | 40.7 µM | 40.6 µM | > 100 µM | > 100 µM | 11.2 µM | 19.3 µM | 56 µM | – | – | – | – | – | – | – | – | – | –
6 | O=C1c2cc3c(cc2-c2c1c1cc(F)c(F)cc1c(=O)n2CCCn1ccnc1)OCO3 | 0.432 µM | > 100 µM | 0.29 µM | > 100 µM | 0.0852 µM | 1.62 µM | 1.24 µM | – | 49.5 µM | 0.0457 µM | 0.0124 µM | 0.25 µM | 0.0204 µM | 0.117 µM | < 0.01 µM | 0.02 µM | 0.0293 µM | < 0.01 µM | 0.0502 µM
7 | CC1=C(C)C(=O)C(C2=CC(=O)c3ccccc3C2=O)=C(C2=CC(=O)c3ccccc3C2=O)C1=O | 17.4 µM | > 38.4 µM | 45.5 µM | > 100 µM | – | 9.77 µM | > 36.2 µM | > 21.2 µM | 48.1 µM | > 100 µM | – | – | – | – | – | – | – | – | –
8 | CCOC(=O)c1cc(-c2ccc(OC)cc2)c([N+](=O)[O-])[nH]1 | > 10 µM | > 10 µM | > 10 µM | > 10 µM | > 10 µM | > 10 µM | > 10 µM | – | > 10 µM | > 10 µM | – | – | – | – | – | – | – | – | –
9 | CC(=O)n1[nH]c(=O)n(-c2ccc(Cl)cc2)c1=O | > 100 µM | > 100 µM | > 100 µM | > 100 µM | > 100 µM | > 100 µM | > 100 µM | > 100 µM | > 100 µM | – | – | – | – | – | – | – | – | – | –
10 | CC(=O)C(=Cc1cn(C)c(=O)n(C)c1=O)C(C)=O | 67.1 µM | – | 194 µM | 218 µM | 176 µM | 189 µM | 382 µM | 171 µM | – | 209 µM | – | – | – | – | – | – | – | – | –
11 | CCC1(c2ccc(N3C(=O)c4cccc5cc([N+](=O)[O-])cc(c45)C3=O)cc2)CCC(=O)NC1=O (stereo not drawn) | 35.1 µM | > 79.1 µM | > 66.2 µM | > 100 µM | > 100 µM | > 100 µM | > 100 µM | > 70.6 µM | 38.6 µM | – | – | – | – | – | – | – | – | – | –
12 | NC(=O)CCC(N=c1c2ccccc2n(O)c2ccccc12)C(=O)O (stereo not drawn) | > 100 µM | > 100 µM | > 100 µM | > 100 µM | > 100 µM | > 100 µM | > 100 µM | > 100 µM | – | – | – | – | – | – | – | – | – | – | –
13 | FC1=C2C3CCC(C3)C2C1(F)F (stereo not drawn) | > 100 µM | > 100 µM | > 100 µM | > 100 µM | > 100 µM | > 100 µM | > 100 µM | > 100 µM | – | > 100 µM | – | – | – | – | – | – | – | – | –
14 | Oc1ccc(C(O)C2CCCCN2)cc1O (stereo not drawn) | > 100 µM | > 100 µM | > 100 µM | > 100 µM | > 100 µM | > 100 µM | – | 65.5 µM | > 100 µM | > 100 µM | – | – | – | – | – | – | – | – | –
15 | Cc1cn(CCCCCCOC(=O)NC(CCCNC(N)=O)C(=O)O)c(=O)[nH]c1=O (stereo not drawn) | – | > 100 µM | > 100 µM | > 100 µM | – | > 100 µM | > 100 µM | > 100 µM | > 100 µM | > 100 µM | – | – | – | – | – | – | – | – | –
16 | COC(=O)c1sc(=O)sc1SCc1cccc(CSc2sc(=O)sc2C(=O)OC)c1 | > 100 µM | 57.5 µM | > 100 µM | > 100 µM | > 100 µM | > 100 µM | > 100 µM | > 100 µM | > 100 µM | – | – | – | – | – | – | – | – | – | –
17 | Cc1ccccc1NC(=O)CSc1nnc(-c2ccc(N=Cc3ccc(Cl)cc3)cc2)o1 | – | > 100 µM | > 100 µM | > 100 µM | > 100 µM | > 100 µM | > 100 µM | > 100 µM | – | – | – | – | – | – | – | – | – | – | –
18 | CC1=C(CO)C(=O)OC(C(C)C2CCC3C4CC5OC56C(O)C(N5CC5)=CC(=O)C6(C)C4CCC23C)C1 (stereo not drawn) | 3.36 µM | 22 µM | 7 µM | 12.9 µM | 25.4 µM | – | 8.52 µM | 31.1 µM | – | 14 µM | – | – | – | – | – | – | – | – | –
19 | Cn1/c(=N\N=C2\C=C3CCCCC3(C)CC2)sc2ccccc21 (stereo not drawn) | > 100 µM | > 100 µM | > 100 µM | > 100 µM | > 100 µM | > 100 µM | – | > 100 µM | > 100 µM | > 100 µM | – | – | – | – | – | – | – | – | –
20 | CC(C)CCCC(C)[C@H]1CCC(C2C[C@@H](O)[C@@H]3CC(O)[C@@H](O)C[C@]3(CO)C2=O)[C@]1(C)CCO (stereo partly drawn) | 73.8 µM | – | > 90.5 µM | > 66.8 µM | 18.8 µM | 35 µM | 22.4 µM | 39.3 µM | – | 39.6 µM | – | – | – | – | – | – | – | – | –
21 | O=C1Nc2ccccc2/C1=C\c1c(Cl)n(-c2ccccc2)c2ccccc12 | – | 27 µM | 14 µM | 18.1 µM | 17.5 µM | 4.13 µM | > 100 µM | 17.8 µM | 29.8 µM | 18.4 µM | – | – | – | – | – | – | – | – | –
22 | O=c1[nH]c(=O)n(COC(CO)CO)cc1-c1ccccc1 | > 100 µM | > 100 µM | > 100 µM | > 100 µM | > 100 µM | > 100 µM | > 100 µM | > 100 µM | – | – | – | – | – | – | – | – | – | – | –
